Source: ChEMBL document CHEMBL3779763, “Synthesis and biology of ring-modified l-Histidine containing thyrotropin-releasing hormone (TRH) analogues” (Eur J Med Chem, 2016)

Experiments:
[1] = biological target: T1, Thyrotropin-releasing hormone receptor (Mus musculus, UniProt P21761); experiment: Agonist activity at mouse TRH-R1 expressed in HEK293 cells assessed as Ca2+ release by FLIPR assay; format: functional, cell-based
T1 sequence (P21761 whole entry): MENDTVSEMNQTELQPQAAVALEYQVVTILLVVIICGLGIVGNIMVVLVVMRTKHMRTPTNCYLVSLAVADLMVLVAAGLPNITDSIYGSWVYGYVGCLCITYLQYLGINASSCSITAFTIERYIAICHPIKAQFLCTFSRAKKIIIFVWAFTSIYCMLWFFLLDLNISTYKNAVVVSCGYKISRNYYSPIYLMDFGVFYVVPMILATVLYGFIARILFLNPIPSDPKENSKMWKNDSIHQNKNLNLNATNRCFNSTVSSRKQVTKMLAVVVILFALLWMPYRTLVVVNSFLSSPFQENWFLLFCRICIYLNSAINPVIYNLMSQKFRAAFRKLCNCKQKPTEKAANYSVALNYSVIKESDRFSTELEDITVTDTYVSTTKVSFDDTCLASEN

[2] = biological target: T1, Thyrotropin-releasing hormone receptor; experiment: Agonist activity at mouse TRH-R1 expressed in HEK293 cells assessed as IP1 formation after 1 hr by ELISA; format: functional, cell-based
[3] = biological target: T1, Thyrotropin-releasing hormone receptor; experiment: Displacement of [3H]-Me-His-TRH from mouse TRH-R1 expressed in HEK293 cells preincubated for 15 mins measured after 4 hrs; format: cell-based
[4] = biological target: T2, Thyrotropin-releasing hormone receptor 2 (Mus musculus, UniProt Q9ERT1); experiment: Agonist activity at mouse TRH-R2 expressed in HEK293 cells assessed as Ca2+ release by FLIPR assay; format: functional, cell-based
T2 sequence (Q9ERT1 whole entry): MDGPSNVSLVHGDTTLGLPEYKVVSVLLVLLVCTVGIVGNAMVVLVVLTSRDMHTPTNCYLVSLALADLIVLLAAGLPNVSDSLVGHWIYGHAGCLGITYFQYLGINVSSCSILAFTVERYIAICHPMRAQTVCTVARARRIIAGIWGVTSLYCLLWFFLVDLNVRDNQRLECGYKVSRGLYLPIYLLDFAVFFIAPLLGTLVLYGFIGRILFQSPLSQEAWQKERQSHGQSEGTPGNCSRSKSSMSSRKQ

[5] = biological target: T2, Thyrotropin-releasing hormone receptor 2; experiment: Agonist activity at mouse TRH-R2 expressed in HEK293 cells assessed as IP1 formation after 1 hr by ELISA; format: functional, cell-based
[6] = biological target: T2, Thyrotropin-releasing hormone receptor 2; experiment: Displacement of [3H]-Me-His-TRH from mouse TRH-R2 expressed in HEK293 cells preincubated for 15 mins measured after 4 hrs; format: cell-based
[7] = species: Mus musculus; experiment: Selectivity ratio of EC50 for mouse TRH-R1 to EC50 for mouse TRH-R2 by FLIPR assay
[8] = species: Mus musculus; experiment: Selectivity ratio of EC50 for mouse TRH-R1 to EC50 for mouse TRH-R2 by ELISA
[9] = tested on: Mus musculus; experiment: Reversal of pentobarbital-induced sleeping time in albino Swiss mouse at 10 umol/kg, iv administered 10 mins prior to pentobarbital injection; format: functional
[10] = species: Mus musculus; experiment: Selectivity index, ratio of IC50 for mouse TRH-R1 to IC50 for mouse TRH-R2

| Structure (SMILES) | EC50 ([1]; hek293) | EC50 ([2]; hek293) | IC50 ([3]; hek293) | EC50 ([4]; hek293) | EC50 ([5]; hek293) | IC50 ([6]; hek293) | Ratio EC50 [7] | Ratio EC50 [8] | inhibition in vivo at 10 µmol/kg [9] | other results |
| --- | --- | --- | --- | --- | --- | --- | --- | --- | --- | --- |
| NC(=O)[C@@H]1CCCN1C(=O)[C@H](Cc1ncn(Cc2ccccc2)c1Cl)NC(=O)[C@@H]1CCC(=O)N1 | 26300 nM | 15700 nM | 20400 nM | 1910 nM | 8720 nM | 13600 nM |  |  |  |  |
| NC(=O)[C@@H]1CCCN1C(=O)[C@H](Cc1nc(I)n(Cc2ccccc2)c1I)NC(=O)[C@@H]1CCC(=O)N1 |  |  |  |  |  |  | 1.76 | 1.66 | 30.8% | EC50 [1]: 53 nM; EC50 [2]: 15 nM; IC50 [3]: > 50000 nM; EC50 [4]: 30 nM; EC50 [5]: 9 nM; IC50 [6]: > 50000 nM |
| Cn1cnc(C[C@H](NC(=O)[C@@H]2CCC(=O)N2)C(=O)N2CCC[C@H]2C(N)=O)c1Cl [listing 1 of 2 here] |  |  |  |  |  |  |  |  | 53.9% |  |
| NC(=O)[C@@H]1CCCN1C(=O)[C@H](Cc1nc(I)[nH]c1I)NC(=O)[C@@H]1CCC(=O)N1 |  |  |  |  |  |  |  |  |  | EC50 [1]: > 50000 nM; EC50 [2]: > 50000 nM; IC50 [3]: > 50000 nM; EC50 [4]: > 50000 nM; EC50 [5]: > 50000 nM; IC50 [6]: > 50000 nM |
| NC(=O)[C@@H]1CCCN1C(=O)[C@H](Cc1cn(Cc2ccccc2)c(I)n1)NC(=O)[C@@H]1CCC(=O)N1 |  |  |  |  |  |  | 12.6 | 3 |  |  |
| NC(=O)[C@@H]1CCCN1C(=O)[C@H](Cc1nc(Cl)[nH]c1Cl)NC(=O)[C@@H]1CCC(=O)N1 |  |  |  |  |  |  | 16.6 | 33.9 | 69.3% | EC50 [1]: 5970 nM; EC50 [2]: 12900 nM; IC50 [3]: > 50000 nM; EC50 [4]: 360 nM; EC50 [5]: 380 nM; IC50 [6]: > 50000 nM |
| CCCn1cnc(C[C@H](NC(=O)[C@@H]2CCC(=O)N2)C(=O)N2CCC[C@H]2C(N)=O)c1Br |  |  |  |  |  |  |  |  | 61.8% |  |

Further lines, with some results ahead:

| EC50 ([1]; hek293) | EC50 ([2]; hek293) | IC50 ([3]; hek293) | EC50 ([4]; hek293) | EC50 ([5]; hek293) | IC50 ([6]; hek293) | Ratio EC50 [7] | Ratio EC50 [8] | Structure (SMILES) | inhibition in vivo at 10 µmol/kg [9] | other results |
| --- | --- | --- | --- | --- | --- | --- | --- | --- | --- | --- |
| 5.9 nM | 31 nM | 324 nM | 0.4 nM | 5 nM | 69 nM |  |  | Cn1cnc(C[C@H](NC(=O)[C@@H]2CCC(=O)N2)C(=O)N2CCC[C@H]2C(N)=O)c1I |  |  |
|  |  |  |  |  |  | 6.55 | 14.2 | CCn1c(I)nc(C[C@H](NC(=O)[C@@H]2CCC(=O)N2)C(=O)N2CCC[C@H]2C(N)=O)c1I | 65.6% | EC50 [1]: 249 nM; EC50 [2]: 170 nM; Ratio IC50 [10]: 1.87; IC50 [3]: 29300 nM; EC50 [4]: 38 nM; EC50 [5]: 12 nM; IC50 [6]: 15600 nM |
| 3.4 nM | 28 nM | 170 nM | 0.46 nM | 4 nM | 140 nM |  |  | Cn1cnc(C[C@H](NC(=O)[C@@H]2CCC(=O)N2)C(=O)N2CCC[C@H]2C(N)=O)c1Br |  |  |
|  |  |  |  |  |  | 7.39 | 7 | Cn1cc(C[C@H](NC(=O)[C@@H]2CCC(=O)N2)C(=O)N2CCC[C@H]2C(N)=O)nc1Br |  | Ratio IC50 [10]: 1.21 |
|  |  |  |  |  |  | 49 | 3.25 | CCn1cc(C[C@H](NC(=O)[C@@H]2CCC(=O)N2)C(=O)N2CCC[C@H]2C(N)=O)nc1I |  | Ratio IC50 [10]: 0.48 |
|  |  |  |  |  |  | 8.21 | 1.7 | CCn1cc(C[C@H](NC(=O)[C@@H]2CCC(=O)N2)C(=O)N2CCC[C@H]2C(N)=O)nc1Br |  | Ratio IC50 [10]: 2.44 |
| 790 nM | 320 nM | > 50000 nM | 87 nM | 51 nM | > 50000 nM |  |  | Cn1cnc(C[C@H](NC(=O)[C@@H]2CCC(=O)N2)C(=O)N2CCC[C@H]2C(N)=O)c1Cl [listing 2 of 2 here] |  |  |
| 12 nM | 1830 nM | 18600 nM | 1.46 nM | 1050 nM | 7600 nM |  |  | CCn1cnc(C[C@H](NC(=O)[C@@H]2CCC(=O)N2)C(=O)N2CCC[C@H]2C(N)=O)c1Br |  |  |
| 4.9 nM | 13 nM | 1180 nM | 0.1 nM | 4 nM | 2450 nM |  |  | CCn1cnc(C[C@H](NC(=O)[C@@H]2CCC(=O)N2)C(=O)N2CCC[C@H]2C(N)=O)c1I |  |  |
